Measurements from ChEMBL document CHEMBL1140860, “Synthesis and evaluation of dihydroartemisinin and dihydroartemisitene acetal dimers showing anticancer and antiprotozoal activity” (Bioorg Med Chem, 2009).
pIC50: −log10 of the molar value.

How the values were obtained:
MOLT-4 = experiment: Growth inhibition of human MOLT4 cells after 48 hrs by sulforhodamine B assay; assay type: functional; settings: MOLT-4, 48 h
SF-268 = experiment: Growth inhibition of human SF268 cells after 48 hrs by sulforhodamine B assay; assay type: functional; settings: SF-268, 48 h
SF-539 = experiment: Growth inhibition of human SF539 cells after 48 hrs by sulforhodamine B assay; assay type: functional; settings: SF-539, 48 h
SNB-19 = experiment: Growth inhibition of human SNB19 cells after 48 hrs by sulforhodamine B assay; assay type: functional; settings: SNB-19, 48 h
SNB-75 = experiment: Growth inhibition of human SNB75 cells after 48 hrs by sulforhodamine B assay; assay type: functional; settings: SNB-75, 48 h
U-251 = experiment: Growth inhibition of human U251 cells after 48 hrs by sulforhodamine B assay; assay type: functional; settings: U-251, 48 h
UACC-62 = experiment: Growth inhibition of human UACC62 cells after 48 hrs by sulforhodamine B assay; assay type: functional; settings: UACC-62, 48 h
IGROV-1 = experiment: Growth inhibition of human IGROV1 cells after 48 hrs by sulforhodamine B assay; assay type: functional; settings: IGROV-1, 48 h
OVCAR-3 = experiment: Growth inhibition of human OVCAR-3 cells after 48 hrs by sulforhodamine B assay; assay type: functional; settings: OVCAR-3, 48 h
OVCAR-8 = experiment: Growth inhibition of human OVCAR8 cells after 48 hrs by sulforhodamine B assay; assay type: functional; settings: OVCAR-8, 48 h
A498 = experiment: Growth inhibition of human A498 cells after 48 hrs by sulforhodamine B assay; assay type: functional; settings: A498, 48 h
BT-549 = experiment: Growth inhibition of human BT549 cells after 48 hrs by sulforhodamine B assay; assay type: functional; settings: BT-549, 48 h
HL-60 [1] = experiment: Antitumor activity against human HL60 cells xenografted athymic nude mouse at 25 mg/kg, sc administered QD for 10 days relative to control; assay type: functional; settings: route subcutaneous
HL-60 [2] = experiment: Antitumor activity against human HL60 cells xenografted athymic nude mouse assessed as delay in tumor growth time at 25 mg/kg, sc administered QD; assay type: functional; settings: route subcutaneous
Mus musculus [3] = experiment: Toxicity in human HL60 cells xenografted athymic nude mouse assessed as mortality at 50 mg/kg, sc administered QD for 10 days; assay type: organism-based, HL-60; design: dose 50 mg/kg, route subcutaneous; settings: in vivo, 240 h
Mus musculus [4] = experiment: Toxicity in human HL60 cells xenografted athymic nude mouse assessed as mortality at 25 mg/kg, sc administered QD for 10 days; assay type: organism-based, HL-60; design: dose 25 mg/kg, route subcutaneous; settings: in vivo, 240 h
Mus musculus [5] = experiment: Toxicity in human HL60 cells xenografted athymic nude mouse assessed as body weight loss at 25 mg/kg, sc administered QD for 10 days relative to control; assay type: organism-based, HL-60; design: dose 25 mg/kg, route subcutaneous; settings: in vivo, 240 h
HUVEC [6] = experiment: Antiangiogenic activity against HUVEC assessed as growth inhibition by NCI antiangiogenesis assay; assay type: functional, cell-based; settings: Homo sapiens
HUVEC [7] = experiment: Antiangiogenic activity against HUVEC assessed as inhibition of VEGF-induced cell migration by NCI antiangiogenesis assay; assay type: functional, cell-based; settings: Homo sapiens
HUVEC [8] = experiment: Antiangiogenic activity against HUVEC assessed as inhibition of capillary-like structure formation by NCI antiangiogenesis assay; assay type: functional, cell-based; settings: Homo sapiens
EKVX = experiment: Growth inhibition of human EKVX cells after 48 hrs by sulforhodamine B assay; assay type: functional
HOP-92 = experiment: Growth inhibition of human HOP92 cells after 48 hrs by sulforhodamine B assay; assay type: functional; settings: HOP-92, 48 h
MDA-N = experiment: Growth inhibition of human MDA-N cells after 48 hrs by sulforhodamine B assay; assay type: functional
Leishmania donovani = experiment: Antileishmanial activity against Leishmania donovani promastigotes after 48 hrs by alamar-blue assay; assay type: functional, organism-based
HL-60 [9] = experiment: Antitumor activity against human HL60 cells xenografted athymic nude mouse at 50 mg/kg, sc administered QD for 10 days relative to control; assay type: functional; settings: route subcutaneous
HL-60 [10] = experiment: Antitumor activity against human HL60 cells xenografted athymic nude mouse assessed as delay in tumor growth time at 50 mg/kg, sc administered QD; assay type: functional; settings: route subcutaneous
Mus musculus [11] = experiment: Toxicity in human HL60 cells xenografted athymic nude mouse assessed as body weight loss at 50 mg/kg, sc administered QD for 10 days relative to control; assay type: organism-based, HL-60; design: dose 50 mg/kg, route subcutaneous; settings: in vivo, 240 h

Row | Structure (SMILES) | GI50 (MOLT-4) [nM] | GI50 (SF-268) [nM] | GI50 (SF-539) [nM] | GI50 (SNB-19) [nM] | GI50 (SNB-75) [nM] | GI50 (U-251) [nM] | GI50 (UACC-62) [nM] | GI50 (IGROV-1) [nM] | GI50 (OVCAR-3) [nM] | GI50 (OVCAR-8) [nM] | GI50 (A498) [nM] | GI50 (BT-549) [nM] | pIC50 (HUVEC [6]) | pIC50 (HUVEC [7]) | pIC50 (HUVEC [8]) | GI50 (EKVX) [nM] | GI50 (HOP-92) [nM] | GI50 (MDA-N) [nM] | pIC50 (Leishmania donovani) | IC90 (Leishmania donovani) [nM] | further results
1 | C[C@H]1[C@@H](OCC(CO[C@H]2O[C@@H]3O[C@@]4(C)CC[C@H]5[C@H](C)CC[C@@H]([C@H]2C)[C@@]35OO4)OC(=O)CCC(=O)O)O[C@@H]2O[C@@]3(C)CC[C@H]4[C@H](C)CC[C@@H]1[C@@]24OO3 (stereo partly drawn) | 290 | 2180 | 616 | 10100 | 22100 | < 10 | 77 | 11100 | 20 | 15 | 13800 | 724 | 4.25 | 4.34 | 4.34 | 470 | 121 |  |  |  | T/C (HL-60 [1]): 23%; Activity (HL-60 [2]): 30 days; Activity (Mus musculus [3]): Toxic; Activity (Mus musculus [4]): Non-toxic; Activity (Mus musculus [5]): 1%
2 | COCC(CO[C@H]1O[C@@H]2O[C@@]3(C)CC[C@H]4[C@H](C)CC[C@@H]([C@H]1C)[C@@]24OO3)O[C@H]1O[C@@H]2O[C@@]3(C)CC[C@H]4[C@H](C)CC[C@@H]([C@H]1C)[C@@]24OO3 (stereo partly drawn) | 27 | 6290 | 4040 | 249 | 22600 | 21 | 135 | 4200 | 65 | 130 | 148 | 7520 |  |  |  | 689 | 71 | 518 |  |  | 
3 | C[C@H]1[C@H](OCCO[C@H]2O[C@@H]3O[C@@]4(C)CC[C@H]5[C@H](C)CC[C@@H]([C@H]2C)[C@@]35OO4)O[C@@H]2O[C@@]3(C)CC[C@H]4[C@H](C)CC[C@@H]1[C@@]24OO3 | 15 | 7540 | 63 | 8260 | 366 | 49 | 72 | 8280 | 1280 | 34 | 8110 | 74 |  |  |  | 40 | 52 | 61 |  |  | 
4 | C[C@H]1[C@@H](OCC(=O)CO[C@H]2O[C@@H]3O[C@@]4(C)CC[C@H]5[C@H](C)CC[C@@H]([C@H]2C)[C@@]35OO4)O[C@@H]2O[C@@]3(C)CC[C@H]4[C@H](C)CC[C@@H]1[C@@]24OO3 | < 10 | 2030 | 10100 | 13300 | 15 | < 10 | < 10 | 1740 | < 10 | < 10 | 15400 | 290 | 4.24 | 4.55 | < 4.30 | 78 | 21 | 26 | 4.98 | 80300 | 
5 | C[C@H]1[C@@H](O[C@H]2CC[C@@H](O[C@H]3O[C@@H]4O[C@@]5(C)CC[C@H]6[C@H](C)CC[C@@H]([C@H]3C)[C@@]46OO5)CC2)O[C@@H]2O[C@@]3(C)CC[C@H]4[C@H](C)CC[C@@H]1[C@@]24OO3 | 20 | 34 | 20 | 99 | 30 | 19 | 22 | 6750 | 15 | 19 | 40 | 42 | 4.38 | 5.48 | 4.41 | 24 | 17 | 24 | 5.11 | 77100 | T/C (HL-60 [9]): 34%; T/C (HL-60 [1]): 50%; Activity (HL-60 [10]): 36 days; Activity (HL-60 [2]): 8 days; Activity (Mus musculus [3]): Non-toxic; Activity (Mus musculus [4]): Non-toxic; Activity (Mus musculus [11]): 17%; Activity (Mus musculus [5]): 3%
6 | C[C@H]1[C@@H](O[C@H]2CC[C@H](O[C@H]3O[C@@H]4O[C@@]5(C)CC[C@H]6[C@H](C)CC[C@@H]([C@H]3C)[C@@]46OO5)CC2)O[C@@H]2O[C@@]3(C)CC[C@H]4[C@H](C)CC[C@@H]1[C@@]24OO3 | 99 | 108 | 92 | 372 | 202 | 16 | 45 | 55 | 67 | 57 | 376 | 21 |  |  |  | 28 | 21 | 77 | 5.13 | 18500 | 
7 | C[C@H]1[C@@H](OCC(O)CO[C@@H]2C[C@@H]3CC[C@@H](C)[C@@H]4CC[C@@]5(C)OO[C@@]34[C@H](O2)O5)O[C@@H]2O[C@@]3(C)CC[C@H]4[C@H](C)CC[C@@H]1[C@@]24OO3 (stereo partly drawn) | 298 | 13700 | 8640 | 27600 | 8250 |  | 296 | 13100 | 171 | 252 | 686 | 408 | 4.11 | 5.74 | 4.51 | 307 | 384 | 368 | 5.30 | 16000 | T/C (HL-60 [9]): 34%; T/C (HL-60 [1]): 68%; Activity (HL-60 [10]): 34 days; Activity (HL-60 [2]): 16 days; Activity (Mus musculus [3]): Non-toxic; Activity (Mus musculus [4]): Non-toxic; Activity (Mus musculus [11]): 5%; Activity (Mus musculus [5]): 2%
8 | C[C@H]1[C@@H](OCCO[C@H]2O[C@@H]3O[C@@]4(C)CC[C@H]5[C@H](C)CC[C@@H]([C@H]2C)[C@@]35OO4)O[C@@H]2O[C@@]3(C)CC[C@H]4[C@H](C)CC[C@@H]1[C@@]24OO3 | 42 | 460 | 300 | > 100000 | 887 | 267 | 343 | 65 |  | 179 | 77200 | 14300 |  |  |  | 146 | 149 | 219 |  |  | 
